Legend:
Assay in all cases: relative viability (nuclei count vs DMSO), 5 days (fraction); higher = more cells survive
GSK126 + Olaparib = compound: CC[C@H](C)N1C=C(C2=C(C=C(C=C21)C3=CN=C(C=C3)N4CCNCC4)C(=O)NCC5=C(C=C(NC5=O)C)C)C [GSK126] + O=C(c1cc(Cc2n[nH]c(=O)c3ccccc23)ccc1F)N1CCN(C(=O)C2CC2)CC1 [Olaparib] (partner 8 µM)
Summary of the method: (§1)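 Relative viability divides the nuclei count in treated wells by that in vehicle wells. Lung cancer cell lines were seeded in 1536-well plates, dosed by pin tool the next day, and fixed and stained after 5 days in one step with final 0.05% Triton X-100, 1% formaldehyde and 1 ug/ml Hoechst. Dosing was a single drug or a fixed anchor-drug dose plus five library-drug doses (not always all listed) in √10 steps, and values are medians of duplicate plates imaged at 4×.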

MLN4924 + Lapatinib = compound: NS(=O)(=O)OC[C@@H]1C[C@@H](n2ccc3c(N[C@H]4CCc5ccccc54)ncnc32)C[C@@H]1O [MLN4924] + CS(=O)(=O)CCNCc1ccc(-c2ccc3ncnc(Nc4ccc(OCc5cccc(F)c5)c(Cl)c4)c3c2)o1 [Lapatinib] (partner 2 µM)
Summary of the method: as §1

Carboplatin + Alpelisib = compound: C1CC(C1)(C(=O)O)C(=O)O.[NH2-].[NH2-].[Pt+2] [Carboplatin] + Cc1nc(NC(=O)N2CCC[C@H]2C(N)=O)sc1-c1ccnc(C(C)(C)C(F)(F)F)c1 [Alpelisib] (partner 2 µM)
Summary of the method: as §1

GSK126 + Trametinib = compound: CC[C@H](C)N1C=C(C2=C(C=C(C=C21)C3=CN=C(C=C3)N4CCNCC4)C(=O)NCC5=C(C=C(NC5=O)C)C)C [GSK126] + CC(=O)Nc1cccc(-n2c(=O)n(C3CC3)c(=O)c3c(Nc4ccc(I)cc4F)n(C)c(=O)c(C)c32)c1 [Trametinib] (partner 0.02 µM)
Summary of the method: as §1

Row | Cell Line | relative viability (GSK126 + Olaparib; first compound 0.08 µM) | relative viability (GSK126 + Olaparib; first compound 0.253 µM) | relative viability (GSK126 + Olaparib; first compound 0.8 µM) | relative viability (GSK126 + Olaparib; first compound 2.53 µM) | relative viability (GSK126 + Olaparib; first compound 8 µM) | relative viability (MLN4924 + Lapatinib; first compound 0.04 µM) | relative viability (MLN4924 + Lapatinib; first compound 0.1265 µM) | relative viability (MLN4924 + Lapatinib; first compound 0.4 µM) | relative viability (MLN4924 + Lapatinib; first compound 1.265 µM) | relative viability (MLN4924 + Lapatinib; first compound 4 µM) | relative viability (Carboplatin + Alpelisib; first compound 0.08 µM) | relative viability (Carboplatin + Alpelisib; first compound 0.253 µM) | relative viability (Carboplatin + Alpelisib; first compound 0.8 µM) | relative viability (Carboplatin + Alpelisib; first compound 2.53 µM) | relative viability (Carboplatin + Alpelisib; first compound 8 µM) | relative viability (GSK126 + Trametinib; first compound 0.08 µM) | relative viability (GSK126 + Trametinib; first compound 0.253 µM) | relative viability (GSK126 + Trametinib; first compound 0.8 µM) | relative viability (GSK126 + Trametinib; first compound 2.53 µM) | relative viability (GSK126 + Trametinib; first compound 8 µM)
1 | 201T | 0.867 | 0.845 | 0.831 | 0.906 | 0.886 | 1.13 | 1.09 | 0.826 | 0.384 | 0.417 | 1.07 | 1.07 | 1.04 | 1.01 | 0.926 | 0.698 | 0.693 | 0.726 | 0.746 | 0.726
2 | A549 | 0.361 | 0.297 | 0.336 | 0.333 | 0.368 | 0.71 | 0.667 | 0.079 | 0.0634 | 0.0662 | 0.811 | 0.901 | 0.854 | 0.674 | 0.234 | – | – | – | – | –
3 | A-427 | 0.704 | 0.724 | 0.701 | 0.765 | 0.837 | 0.589 | 0.608 | 0.268 | 0.196 | 0.169 | 1.14 | 1.09 | 1.02 | 1.05 | 1.06 | 0.845 | 0.762 | 0.712 | 0.757 | 0.795
4 | ABC-1 | 0.573 | 0.698 | 0.869 | 0.691 | 0.659 | 1.11 | 1.45 | 1.71 | 0.773 | 0.552 | 1.04 | 1.16 | 1.04 | 0.919 | 0.664 | – | – | – | – | –
5 | BEN | 1.23 | 1.01 | 1.16 | 1.13 | 1.12 | 0.671 | 0.522 | 0.249 | 0.145 | 0.104 | 1.11 | 1.04 | 0.891 | 0.798 | 0.909 | 1.05 | 0.736 | 1.02 | 1.26 | 0.953
6 | CAL-12T | 0.809 | 0.713 | 0.758 | 0.829 | 0.643 | – | 0.603 | 0.354 | 0.198 | 0.243 | 1.18 | 1.05 | 1.2 | 1.23 | 1.12 | 0.407 | 0.366 | 0.311 | 0.382 | 0.348
7 | COR-L23 | 0.422 | 0.33 | 0.33 | 0.354 | 0.387 | 0.921 | 0.672 | 0.431 | 0.142 | 0.106 | 0.724 | 0.721 | 0.74 | 0.663 | 0.272 | 0.837 | 0.563 | 0.499 | 0.557 | 0.737
8 | COR-L 105 | 0.586 | 0.628 | 0.732 | 0.583 | 0.631 | 0.355 | 0.335 | 0.337 | 0.282 | 0.281 | 1.01 | 1.07 | 0.893 | 0.959 | 0.566 | 0.453 | 0.424 | 0.467 | 0.439 | 0.466
9 | Calu-6 | 0.604 | 0.664 | – | 0.612 | 0.577 | 0.868 | 0.6 | 0.211 | 0.122 | 0.129 | 1 | 0.913 | 1.04 | 0.856 | 0.4 | – | – | – | – | –
10 | ChaGo-K-1 | 0.419 | 0.419 | 0.432 | 0.5 | 0.431 | – | – | – | – | – | – | – | – | – | – | 0.902 | 0.986 | 0.888 | 0.947 | 0.983
11 | EBC-1 | 0.743 | 0.711 | 0.702 | 0.684 | 0.615 | 0.246 | 0.297 | 0.228 | 0.191 | 0.216 | 0.85 | 0.827 | 0.809 | 0.799 | 0.77 | – | – | – | – | –
12 | EKVX | 0.929 | 1 | 0.808 | 1.11 | 0.816 | 0.208 | 0.311 | 0.19 | 0.119 | 0.102 | 0.908 | 0.877 | 0.743 | 0.783 | 0.87 | 0.377 | 0.446 | 0.354 | 0.362 | 0.268
13 | EMC-BAC-2 | 0.512 | 0.436 | 0.502 | 0.436 | 0.47 | 0.468 | 0.913 | 0.303 | 0.217 | 0.178 | 0.816 | 0.719 | 0.762 | 0.734 | 0.714 | 0.849 | 0.832 | 0.92 | 0.676 | 0.859
14 | EPLC-272H | 0.818 | 0.749 | 0.697 | 0.806 | 0.804 | 0.848 | 0.805 | 0.106 | 0.119 | 0.165 | 0.966 | 0.931 | 0.936 | 0.986 | 0.843 | 0.353 | 0.252 | 0.279 | 0.312 | 0.258
15 | H3255 | 0.571 | 0.553 | 0.517 | 0.582 | 0.57 | 0.253 | 0.38 | 0.201 | 0.185 | 0.208 | 0.685 | 0.698 | 0.673 | 0.657 | 0.575 | 0.685 | 0.628 | 0.639 | 0.546 | 0.571
16 | HARA | 0.994 | 0.911 | 0.934 | 0.861 | 0.657 | 0.856 | 0.607 | 0.283 | 0.0754 | 0.0741 | 0.814 | 0.812 | 0.714 | 0.719 | 0.73 | 0.755 | 0.771 | 0.587 | 0.613 | 0.621
17 | HCC-15 | 0.749 | 0.776 | 0.686 | 0.608 | 0.745 | 0.514 | 0.374 | 0.115 | 0.0895 | 0.0956 | 0.93 | 0.93 | 0.84 | 0.761 | 0.707 | 0.425 | 0.409 | 0.386 | 0.382 | 0.359

Reference: the supplement of paper PMC10307832
